In patent US20070259895A1, “MGluR5 modulators VI” (AstraZeneca AB, priority 2006, published 2007):

Experiments:
human mGluR5d = molecular target: T1, human mGluR5d (Homo sapiens, UniProt P41594); test: FLIPR assay, mobilization of intracellular calcium in cells expressing mGluR5d; type: cell-based
T1 construct: expressed in transfected cells; The IP3 assay uses GHEK cells stably expressing human mGluR5d
Excerpt: The properties of the compounds of the invention can be analyzed using standard assays for pharmacological activity. Examples of glutamate receptor assays are well known in the art as described in for example Aramori et al, Neuron 8:757 (1992), Tanabe et al., Neuron 8:169 (1992), Miller et al., J. Neuroscience 15: 6103 (1995), Balazs, et al., J. Neurochemistry 69:151 (1997). The methodology described in these publications is incorporated herein by reference. Conveniently, the compounds of the invention can be studied by means of an assay (FLIPR) that measures the mobilization of intracellular calcium, [Ca^2+]i in cells expressing mGluR5 or another assay (IP3) that measures inositol phosphate turnover.
Cells expressing human mGluR5d as described in WO97/05252 are seeded at a density of 100,000 cells per well on collagen coated clear bottom 96-well plates with black sides and experiments are done 24 h following seeding. […] The fluorescence signal is sampled 50 times at 1 second intervals followed by 3 samples at 5 second intervals immediately after each of the two additions. Responses are measured as the difference between the peak height of the response to agonist, less the background fluorescence within the sample period. […]

[1] = Determination of brain to plasma ratio in rat; type: in vivo, female Sprague Dawley rats; settings: female, Sprague-Dawley, brain and plasma, read-out: Brain to Plasma Ratio of compound in Rat
Procedure: Brain to plasma ratios are estimated in female Sprague Dawley rats. The compound is dissolved in water or another appropriate vehicle. For determination of brain to plasma ratio the compound is administrated as a subcutaneous, or an intravenous bolus injection, or an intravenous infusion, or an oral administration. At a predetermined time point after the administration a blood sample is taken with cardiac puncture. The rat is terminated by cutting the heart open, and the brain is immediately retained. The blood samples are collected in heparinized tubes and centrifuged within 30 minutes, in order to separate the plasma from the blood cells. The plasma is transferred to 96-well plates and stored at −20° C. until analysis. The brains are divided in half, and each half is placed in a pre-tarred tube and stored at −20° C. until analysis. Prior to the analysis, the brain samples are thawed and 3 ml/g brain tissue of distilled water is added to the tubes. The brain samples are sonicated in an ice bath until the samples are homogenized. Both brain and plasma samples are precipitated with acetonitrile. After centrifugation, the supernatant is diluted with 0.2% formic acid. […] After reconstitution of the residuals the samples are ready for injection onto the HPLC column.

T1 sequence (P41594 21-942 isoform P41594-3 limits assumed): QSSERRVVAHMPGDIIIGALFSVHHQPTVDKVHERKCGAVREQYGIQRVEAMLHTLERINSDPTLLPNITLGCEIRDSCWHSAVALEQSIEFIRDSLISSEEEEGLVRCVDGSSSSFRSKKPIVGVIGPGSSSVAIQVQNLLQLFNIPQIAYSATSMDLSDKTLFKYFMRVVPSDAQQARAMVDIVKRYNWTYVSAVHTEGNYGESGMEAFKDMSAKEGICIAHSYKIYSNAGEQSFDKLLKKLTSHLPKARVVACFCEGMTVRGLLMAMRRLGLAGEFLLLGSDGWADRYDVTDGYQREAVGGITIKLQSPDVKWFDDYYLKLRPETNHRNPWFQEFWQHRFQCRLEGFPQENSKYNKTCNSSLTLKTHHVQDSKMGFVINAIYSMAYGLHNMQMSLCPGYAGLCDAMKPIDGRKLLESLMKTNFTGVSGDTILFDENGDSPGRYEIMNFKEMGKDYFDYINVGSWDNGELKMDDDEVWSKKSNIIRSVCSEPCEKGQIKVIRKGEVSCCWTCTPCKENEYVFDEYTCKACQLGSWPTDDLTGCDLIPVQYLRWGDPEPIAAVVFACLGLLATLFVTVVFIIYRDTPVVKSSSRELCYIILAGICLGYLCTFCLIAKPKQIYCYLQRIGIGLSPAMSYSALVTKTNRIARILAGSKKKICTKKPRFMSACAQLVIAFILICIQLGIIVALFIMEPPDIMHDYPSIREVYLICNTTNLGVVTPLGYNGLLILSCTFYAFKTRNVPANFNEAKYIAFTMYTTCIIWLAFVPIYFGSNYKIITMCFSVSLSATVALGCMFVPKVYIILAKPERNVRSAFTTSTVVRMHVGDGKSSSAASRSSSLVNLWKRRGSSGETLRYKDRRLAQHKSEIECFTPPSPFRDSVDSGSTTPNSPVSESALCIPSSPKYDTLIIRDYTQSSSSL

SMILES: COc1cc(-c2nnc3n2CCCN3Cc2cc(-c3cccc(Cl)c3)on2)ccn1 [Example 11.2, 8-{[5-(3-Chlorophenyl)isoxazol-3-yl]methyl}-3-(2-methoxypyridin-4-yl)-5,6,7,8-tetrahydro[1,2,4]triazolo[4,3-a]pyrimidine]
- IC50 (human mGluR5d): 51 nM
- Kp [1]: 0.36
